Assay [1] is described as follows: Displacement of [3H]-SCH23390 from dopamine D1 receptor (unknown origin) expressed in sheep striatum membranes after […] by scintillation counting analysis.
Assay [2] can be described thus: Displacement of [3H]-R-PIA from adenosine A1 receptor (unknown origin) expressed in sheep striatum membranes after 2 hrs by scintillation counting analysis.
Assay [3] can be described thus: Displacement of [3H]-YM09151-2 from dopamine D2 receptor (unknown origin) expressed in sheep striatum membranes assessed as low affinity constant after 2 hrs by scintillation counting analysis. In general terms: In a radioligand displacement assay an active substance lowers the binding of a labelled ligand.
A short description of assay [4]: Displacement of [3H]-YM09151-2 from dopamine D2 receptor (unknown origin) expressed in sheep striatum membranes assessed as high affinity constant after 2 hrs by scintillation counting analysis.

Molecules are shown by their SMILES.

As for `CCCC[C@H](NC(=O)[C@H]1CC[C@@H]2c3[nH]c4ccccc4c3CCN2C1)C(=O)N[C@@H](Cc1ccc(F)c(F)c1)C(=O)N[C@@H](CCCCN)C(N)=O`, the Kd is 1300 nM in assay [1], greater than 100000 nM in assay [2], 8000 nM in assay [3] and 190 nM in assay [4].

`CCCC[C@H](NC(=O)[C@H]1CC[C@@H]2c3[nH]c4ccccc4c3CCN2C1)C(=O)N[C@@H](Cc1ccc(O)cc1)C(=O)N[C@@H](CCCCN)C(N)=O`: the Kd in assay [1] was 1200 nM; in assay [2], greater than 100000 nM; in assay [4], 4700 nM.

In general, Kd refers to the free concentration of one partner at which half of the binding sites on the other are occupied at equilibrium, for simple one-to-one binding.

For the origin of these results see BindingDB's records for doi:10.1016/j.ejmech.2015.04.052 (University of Barcelona, 2015).
